Test results: ChEMBL document CHEMBL4265969, “Design, synthesis and biological evaluation of (2S,3R,4R,5S,6R)-5-fluoro-6-(hydroxymethyl)-2-aryltetrahydro-2H-pyran-3,4-diols as potent and orally active SGLT dual inhibitors” (Bioorg Med Chem Lett, 2018)

What was measured:
[1] = molecular target: T1, Sodium/glucose cotransporter 2 (Homo sapiens, UniProt P31639); assay: Inhibition of human kidneyl SGLT2 expressed in CHOK1 cells assessed as reduction in Na-dependent [14C]-AMG uptake preincubated for 10 mins followed by [14C]-AMG addition measured after 2 hrs by TopCount method; format: cell-based
T1 sequence (P31639 whole entry): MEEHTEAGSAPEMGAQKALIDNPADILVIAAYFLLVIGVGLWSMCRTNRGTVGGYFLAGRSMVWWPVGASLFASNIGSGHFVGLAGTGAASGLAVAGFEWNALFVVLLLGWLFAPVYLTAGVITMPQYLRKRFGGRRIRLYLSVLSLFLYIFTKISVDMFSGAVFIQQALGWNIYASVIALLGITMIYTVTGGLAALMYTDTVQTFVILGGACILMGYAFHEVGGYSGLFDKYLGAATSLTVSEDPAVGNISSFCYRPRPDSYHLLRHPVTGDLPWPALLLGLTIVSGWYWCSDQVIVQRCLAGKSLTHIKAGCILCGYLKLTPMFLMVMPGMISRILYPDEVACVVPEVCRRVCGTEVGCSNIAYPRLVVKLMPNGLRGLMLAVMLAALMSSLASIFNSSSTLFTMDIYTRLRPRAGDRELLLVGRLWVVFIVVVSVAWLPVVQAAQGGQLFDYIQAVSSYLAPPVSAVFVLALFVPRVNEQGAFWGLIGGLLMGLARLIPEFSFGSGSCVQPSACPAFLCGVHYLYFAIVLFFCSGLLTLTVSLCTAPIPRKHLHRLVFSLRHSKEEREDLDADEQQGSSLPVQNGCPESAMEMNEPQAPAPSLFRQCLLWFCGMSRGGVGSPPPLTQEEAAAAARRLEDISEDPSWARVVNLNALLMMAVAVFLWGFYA

[2] = Metabolic stability in human liver microsomes at 1 uM after 10 mins in presence of NADPH; format: ADME, microsome; details: read-out: Stability
[3] = Metabolic stability in mouse liver microsomes at 1 uM after 10 mins in presence of NADPH; format: ADME, microsome; details: read-out: Stability
[4] = Metabolic stability in rat liver microsomes at 1 uM after 10 mins in presence of NADPH; format: ADME, microsome; details: read-out: Stability
[5] = molecular target: T2, SGLT1 (sodium/glucose cotransporter 1) (Homo sapiens, UniProt P13866); assay: Inhibition of human small intestinal SGLT1 expressed in CHOK1 cells assessed as reduction in Na-dependent [14C]-AMG uptake at 0.3 uM preincubated for 10 mins followed by [14C]-AMG addition measured after 2 hrs by TopCount method relative to control; format: cell-based; details: CHO-K1 cells expressing human SGLT1, probe [14C]-AMG
T2 sequence (P13866 whole entry): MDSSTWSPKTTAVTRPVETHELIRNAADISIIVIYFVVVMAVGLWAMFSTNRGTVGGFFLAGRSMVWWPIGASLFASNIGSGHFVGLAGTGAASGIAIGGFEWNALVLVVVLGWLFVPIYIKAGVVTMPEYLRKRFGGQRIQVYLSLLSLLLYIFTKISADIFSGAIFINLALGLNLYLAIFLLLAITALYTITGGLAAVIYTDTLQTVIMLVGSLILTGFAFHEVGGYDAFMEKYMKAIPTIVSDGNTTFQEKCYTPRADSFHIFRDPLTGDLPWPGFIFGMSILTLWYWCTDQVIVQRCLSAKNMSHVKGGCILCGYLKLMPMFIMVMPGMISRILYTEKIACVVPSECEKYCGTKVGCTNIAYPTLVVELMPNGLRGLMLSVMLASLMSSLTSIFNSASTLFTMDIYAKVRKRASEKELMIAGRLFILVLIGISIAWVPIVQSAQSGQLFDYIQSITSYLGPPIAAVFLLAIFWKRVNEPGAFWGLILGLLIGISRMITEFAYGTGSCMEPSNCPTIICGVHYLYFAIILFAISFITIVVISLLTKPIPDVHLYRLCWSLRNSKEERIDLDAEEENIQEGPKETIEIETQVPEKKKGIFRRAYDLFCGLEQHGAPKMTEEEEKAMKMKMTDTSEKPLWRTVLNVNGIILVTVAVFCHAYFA

[6] = molecular target: T3, Sodium/glucose cotransporter 2 (Homo sapiens) (UniProt P31639); assay: Inhibition of human kidneyl SGLT2 expressed in CHOK1 cells assessed as reduction in Na-dependent [14C]-AMG uptake at 0.3 uM preincubated for 10 mins followed by [14C]-AMG addition measured after 2 hrs by TopCount method relative to control; format: cell-based
T3 sequence (whole entry): T1 sequence (P31639 whole entry)

[7] = Half life in human hepatocytes at 1 uM; format: ADME, cell-based, Hepatocyte
[8] = Half life in Sprague-Dawley rat hepatocytes at 1 uM; format: ADME, cell-based, Hepatocyte
[9] = Half life in dog hepatocytes at 1 uM; format: ADME, cell-based, Canis lupus familiaris, Hepatocyte
[10] = Half life in monkey hepatocytes at 1 uM; format: ADME, cell-based, Macaca mulatta, Hepatocyte; details: rhesus monkey
[11] = Half life in Sprague-Dawley rat at 2 mg/kg, iv; format: ADME, organism-based; details: in vivo
[12] = Clearance in Sprague-Dawley rat at 2 mg/kg, iv; format: ADME, organism-based; details: in vivo
[13] = Volume of distribution at steady state in Sprague-Dawley rat at 2 mg/kg, iv; format: ADME, organism-based; details: in vivo, read-out: Vdss
[14] = Half life in Sprague-Dawley rat at 10 mg/kg, po; format: ADME, organism-based; details: in vivo
[15] = Cmax in Sprague-Dawley rat at 10 mg/kg, po; format: ADME, organism-based; design: dose 10 mg/kg, route oral; details: in vivo
[16] = Tmax in Sprague-Dawley rat at 10 mg/kg, po; format: ADME, organism-based; details: in vivo
[17] = AUC (0 to infinity) in Sprague-Dawley rat at 10 mg/kg, po; format: ADME, organism-based; design: dose 10 mg/kg, route oral, time infinity; details: in vivo
[18] = Oral bioavailability in Sprague-Dawley rat at 10 mg/kg; format: ADME, organism-based; details: in vivo

Structure (SMILES): Cc1cc(O)c([C@@H]2O[C@H](CO)[C@@H](F)[C@H](O)[C@H]2O)cc1Cc1cc2c(s1)CCN(C(=O)N1CCCC1)C2
- IC50 [1]: 13.6 nM
- remaining at 10 min, 1 µM [2]: 71%
- remaining at 10 min, 1 µM [3]: 74%
- remaining at 10 min, 1 µM [4]: 82%

Structure (SMILES): Cc1ccc([C@@H]2O[C@H](CO)[C@@H](F)[C@H](O)[C@H]2O)cc1Cc1cc2c(s1)CCN(C(=O)C1CCCC1)C2
- inhibition at 2 h, 0.3 µM [5]: 49%
- inhibition [6]: 59%

Structure (SMILES): CCOC(=O)N1CCc2sc(Cc3cc([C@@H]4O[C@H](CO)[C@@H](F)[C@H](O)[C@H]4O)c(O)cc3C)cc2C1
- remaining at 10 min, 1 µM [2]: 80%
- remaining at 10 min, 1 µM [3]: 86%
- remaining at 10 min, 1 µM [4]: 78%

Structure (SMILES): Cc1cc(O)c([C@@H]2O[C@H](CO)[C@@H](F)[C@H](O)[C@H]2O)cc1Cc1cc2c(s1)CCN(C(=O)c1nccs1)C2
- remaining at 10 min, 1 µM [2]: 69%
- remaining at 10 min, 1 µM [3]: 66%
- remaining at 10 min, 1 µM [4]: 91%

Structure (SMILES): COc1c([C@@H]2O[C@H](CO)[C@@H](F)[C@H](O)[C@H]2O)cc(Cc2ccc3c(c2)SCCO3)c2c1CCO2
- IC50 [1]: 8.3 nM
- remaining at 10 min, 1 µM [2]: 73%
- remaining at 10 min, 1 µM [3]: 61%
- remaining at 10 min, 1 µM [4]: 12%

Structure (SMILES): O=C(O)Cc1ccccc1Nc1c(Cl)cccc1Cl [DICLOFENAC]
- half-life at 1 µM [7]: 0.7 h
- half-life at 1 µM [8]: 0.8 h
- half-life at 1 µM [9]: 5.2 h
- half-life at 1 µM [10]: 1 h

Structure (SMILES): Cc1cc(O)c([C@@H]2O[C@H](CO)[C@@H](F)[C@H](O)[C@H]2O)cc1Cc1cc2c(s1)CCN(C#N)C2
- IC50 [1]: 2.6 nM
- remaining at 10 min, 1 µM [2]: 95%
- remaining at 10 min, 1 µM [3]: 91%
- remaining at 10 min, 1 µM [4]: 79%
- half-life [11]: 0.99 h
- clearance [12]: 149 mL/min/kg
- Vd [13]: 3.79 L/kg
- half-life [14]: 1.44 h
- Cmax [15]: 13.7 ng/mL
- Tmax [16]: 2.2 h
- AUC(0-inf) [17]: 44.6 ng·h/mL
- bioavailability [18]: 5%

Structure (SMILES): Cc1ccc([C@@H]2O[C@H](CO)[C@@H](F)[C@H](O)[C@H]2O)cc1Cc1cc2c(s1)CCN(C#N)C2
- inhibition [6]: 76%

Structure (SMILES): COc1c(Cc2ccc3c(c2)OCCO3)cc([C@@H]2O[C@H](CO)[C@@H](F)[C@H](O)[C@H]2O)c2c1CCO2
- IC50 [1]: 7.5 nM
- remaining at 10 min, 1 µM [2]: 91%
- remaining at 10 min, 1 µM [3]: 94%
- remaining at 10 min, 1 µM [4]: 2%

Structure (SMILES): OC[C@H]1O[C@@H](c2cc(Cc3ccc4c(c3)OCCO4)c3c(c2O)CCO3)[C@H](O)[C@@H](O)[C@@H]1F
- remaining at 10 min, 1 µM [2]: 97%
- remaining at 10 min, 1 µM [3]: 97%
- remaining at 10 min, 1 µM [4]: 64%
- half-life [11]: 0.31 h
- clearance [12]: 28.1 mL/min/kg
- Vd [13]: 1.22 L/kg
- Cmax [15]: 168 ng/mL
- Tmax [16]: 0.25 h
- AUC(0-inf) [17]: 307 ng·h/mL
- bioavailability [18]: 4%

Structure (SMILES): OC[C@H]1O[C@@H](c2cc(Cc3ccc4c(c3)OCCO4)c(O)c3c2OCC3)[C@H](O)[C@@H](O)[C@@H]1F
- inhibition at 2 h, 0.3 µM [5]: 31%
- inhibition [6]: 26%

Structure (SMILES): COc1cc(C)c(Cc2cc3c(s2)CCN(C#N)C3)cc1[C@@H]1O[C@H](CO)[C@@H](F)[C@H](O)[C@H]1O
- IC50 [1]: 5.3 nM

Structure (SMILES): Cc1ccc([C@@H]2O[C@H](CO)[C@@H](F)[C@H](O)[C@H]2O)cc1Cc1cc2c(s1)CCN(C(=O)c1nccs1)C2
- inhibition at 2 h, 0.3 µM [5]: 39%
- inhibition [6]: 73%

Structure (SMILES): Cc1ncc2n1-c1ccc(Cl)cc1C(c1ccccc1F)=NC2 [MIDAZOLAM]
- half-life at 1 µM [7]: 1 h
- half-life at 1 µM [10]: 1.4 h
